{
  "source": "patent EP2787003A1",
  "about": "“Antimicrobial peptide produced by marine sponge-derived Bacillus subtilis” (priority 2013, dated 2014)",
  "key": {"E. faecium": {"test_system": "E. faecium", "assay": "Spot on lawn assay", "assay_type": "cell-based, Euterococcous faecium NCIMB 11508", "design": "key: +, clear halo of growth inhibition; ++: multiple +, increased activity as assessed visually by the increased diameter of the inhibition zone; +++: multiple +, increased activity as assessed visually by the increased diameter of the inhibition zone; ++++: multiple +, increased activity as assessed visually by the increased diameter of the inhibition zone; +++++: multiple +, increased activity as assessed visually by the increased diameter of the inhibition zone; -, no inhibition", "details": "indicator E. faecium", "protocol": "(§1) Antimicrobial activity of isolate MMA7 against the indicator strains was initially assessed with a deferred antagonism assay as described by Phelan et al. (2012). Subsequent testing of supernatants, crude extracts and purified compounds was carried out with a well and/or a spot on lawn assays. Essentially, 5 µl of samples were spotted onto 20 ml agar plates seeded with the indicator strain to a final OD600 of 0.015, or 30 µl aliquots were applied to a 5 mm well made on identical plates."}, "A. hydrophila": {"test_system": "A. hydrophila", "assay": "Spot on lawn assay", "assay_type": "cell-based, Aeromonas hydrophila LMG 2844", "design": "key to Antimicrobial activity, spot on lawn assay: +, clear halo of growth inhibition; ++: multiple +, increased activity as assessed visually by the increased diameter of the inhibition zone; +++: multiple +, increased activity as assessed visually by the increased diameter of the inhibition zone; ++++: multiple +, increased activity as assessed visually by the increased diameter of the inhibition zone; +++++: multiple +, increased activity as assessed visually by the increased diameter of the inhibition zone; -, no inhibition", "protocol": "as §1"}, "[1]": {"test_system": "L. monocytogenes and B. cereus", "assay": "Storage stability, bioactivity by spot on lawn assay", "assay_type": "physicochemical", "excerpt": "Untreated samples were used as controls."}, "L. monocytogenes [2]": {"test_system": "L. monocytogenes", "assay": "Activity at different pH values, spot on lawn assay"}, "α-chymotrypsin": {"biological_target": "α-chymotrypsin (Bos taurus, UniProt P00766)", "assay": "Susceptibility to proteolytic enzymes, bioactivity by spot on lawn assay", "details": "α-chymotrypsin 1 mg ml^-1, 37 °C, 1 h; indicator L. monocytogenes"}, "L. monocytogenes [3]": {"test_system": "L. monocytogenes", "assay": "Thermal stability, bioactivity by spot on lawn assay"}, "proteinase K": {"biological_target": "proteinase K (Parengyodontium album, UniProt P06873)", "sequence (P06873 106-384)": "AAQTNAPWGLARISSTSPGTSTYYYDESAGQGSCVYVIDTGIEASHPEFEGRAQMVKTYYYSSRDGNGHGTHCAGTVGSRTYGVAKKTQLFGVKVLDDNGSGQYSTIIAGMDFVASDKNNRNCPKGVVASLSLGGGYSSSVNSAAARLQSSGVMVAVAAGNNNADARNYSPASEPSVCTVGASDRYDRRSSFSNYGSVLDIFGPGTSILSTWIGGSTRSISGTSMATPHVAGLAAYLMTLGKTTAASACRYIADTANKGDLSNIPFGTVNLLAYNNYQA", "assay": "Susceptibility to proteolytic enzymes, bioactivity by spot on lawn assay", "details": "proteinase K 1 mg ml^-1, 37 °C, 1 h; indicator L. monocytogenes"}, "V. anguillarum": {"test_system": "V. anguillarum", "assay": "Spot on lawn assay", "assay_type": "cell-based, Listonella (Vibrio) anguillarum LMG 4410", "design": "key to Antimicrobial activity, spot on lawn assay: +, clear halo of growth inhibition; ++: multiple +, increased activity as assessed visually by the increased diameter of the inhibition zone; +++: multiple +, increased activity as assessed visually by the increased diameter of the inhibition zone; ++++: multiple +, increased activity as assessed visually by the increased diameter of the inhibition zone; +++++: multiple +, increased activity as assessed visually by the increased diameter of the inhibition zone; -, no inhibition", "protocol": "as §1"}, "[4]": {"details": "dried pellets from 1.5 ml RP-HPLC-purified fractions"}, "C. difficile": {"test_system": "C. difficile", "assay": "Spot on lawn assay", "assay_type": "cell-based, Clostridium difficile 001", "design": "key: +, clear halo of growth inhibition; ++: multiple +, increased activity as assessed visually by the increased diameter of the inhibition zone; +++: multiple +, increased activity as assessed visually by the increased diameter of the inhibition zone; ++++: multiple +, increased activity as assessed visually by the increased diameter of the inhibition zone; +++++: multiple +, increased activity as assessed visually by the increased diameter of the inhibition zone; -, no inhibition", "details": "indicator C. difficile", "protocol": "as §1"}, "L. monocytogenes [5]": {"test_system": "L. monocytogenes", "assay": "Mode of action: growth of the indicator in 96 well plates (optical density, cfu)", "assay_type": "cell-based, Listeria monocytogenes EGDe", "protocol": "Initially 100 µl aliquots of a two-fold serial dilution of the MB 12h cultures CFS, ASCE and the purified peptide (approx. 150 µg ml^-1), were applied to individual wells on a 96 flat bottom multiple well plate (Sarstedt). An overnight culture of the indicator strain was diluted to an OD595 of 0.05 and 100 µl were applied to each of the wells containing the bioactive peptide. The plate was incubated at 37 °C, with agitation (200 rpm) and the optical density (595 nm) was monitored hourly. Wells where the indicator was added to water only were used as negative controls. Subsequently, 100 µl of indicator overnight cultures diluted to an OD595 of 0.05 were applied to individual wells on a 96 well plate and allowed to grow to an OD595 of 0.5-0.6. 100 µl of a two-fold serial dilutions of the CFS, the respective ASCE and purified peptide, or water, were then applied to the different wells and growth continued to be monitored hourly. At the different time points samples were taken and the number of cfu determined by plating dilutions onto appropriate agar plates."}, "VRE": {"test_system": "VRE", "assay": "Spot on lawn assay", "assay_type": "cell-based, VRE EC725", "design": "key: +, clear halo of growth inhibition; ++: multiple +, increased activity as assessed visually by the increased diameter of the inhibition zone; +++: multiple +, increased activity as assessed visually by the increased diameter of the inhibition zone; ++++: multiple +, increased activity as assessed visually by the increased diameter of the inhibition zone; +++++: multiple +, increased activity as assessed visually by the increased diameter of the inhibition zone; -, no inhibition", "details": "indicator VRE"}, "L. monocytogenes [6]": {"test_system": "L. monocytogenes", "assay": "Spot on lawn assay", "assay_type": "cell-based, Listeria monocytogenes EGDe", "design": "key: +, clear halo of growth inhibition; ++: multiple +, increased activity as assessed visually by the increased diameter of the inhibition zone; +++: multiple +, increased activity as assessed visually by the increased diameter of the inhibition zone; ++++: multiple +, increased activity as assessed visually by the increased diameter of the inhibition zone; +++++: multiple +, increased activity as assessed visually by the increased diameter of the inhibition zone; -, no inhibition", "details": "indicator L. monocytogenes", "protocol": "as §1"}},
  "data": [
    {"smiles": "C=C1NC(=O)[C@@H]2CSC[C@@H](NC(=O)[C@@H]3CS[C@@H](C)[C@H]4NC(=O)[C@H](Cc5ccccc5)NC(=O)[C@H](NC(=O)[C@H](CCCNC(=N)N)NC(=O)[C@@H]5CSC[C@@H](NC(=O)[C@H](CCC(N)=O)NC(=O)[C@@H](NC(=O)[C@@H](NC(=O)/C(=C/C)NC(=O)[C@H](CCCCN)NC(=O)CNC(=O)[C@@H](NC(=O)/C(=C/C)NC(=O)[C@H](C)NC(=O)[C@H](Cc6c[nH]c7ccccc67)NC(=O)C(=O)CC)[C@@H](C)CC)[C@@H](C)CC)C(C)C)C(=O)N[C@@H](C(C)C)C(=O)N[C@@H](CCCCN)C(=O)N[C@@H](CCCCN)C(=O)N5)[C@H](C)SC[C@H](NC4=O)C(=O)NCC(=O)N3)C(=O)N[C@@H](CC(C)C)C(=O)NCC(=O)N[C@H](CSC[C@@H](C(=O)N[C@@H](CC(N)=O)C(=O)O)NC(=O)[C@H](CC(N)=O)NC1=O)C(=O)N2", "note": "[Subtilomycin]", "values": [
      {"measurement": "Antimicrobial activity, spot on lawn assay", "setting": "E. faecium", "value": "-"},
      {"measurement": "Amount of peptide needed for detectable activity relative to that required to inhibit the Gram-positive indicators", "setting": "A. hydrophila; A. hydrophila", "value": "four to five fold more peptide"},
      {"measurement": "Antimicrobial activity, spot on lawn assay", "setting": "A. hydrophila; indicator A. hydrophila, *activity only detected with 4 to 5 times more peptide than that used for the other indicators", "value": "+*"},
      {"measurement": "Activity after storage", "setting": "[1]; after 5 months storage at -20 °C and -80 °C", "value": "No activity"},
      {"measurement": "Activity after storage", "setting": "[1]; stored at 4 °C and room temperature, after two weeks", "value": "lost their activity"},
      {"measurement": "Period of storage with retained activity", "setting": "[1]; stored at -20 °C and -80 °C, spot on lawn against L. monocytogenes and B. cereus", "value": "up to 4 months"},
      {"measurement": "Activity at different pH", "setting": "L. monocytogenes [2]; pH 9, 1 h at room temperature", "value": "reduction in activity"},
      {"measurement": "Activity at different pH", "setting": "L. monocytogenes [2]; pH range 2 to 8, 1 h at room temperature", "value": "fully active"},
      {"measurement": "Activity at different pH", "setting": "L. monocytogenes [2]; pH values higher than 9 (up to 11)", "value": "no activity"},
      {"measurement": "Antimicrobial activity after proteolytic treatment", "setting": "α-chymotrypsin", "value": "None of the treatments resulted in a decrease of activity"},
      {"measurement": "Activity after heat treatment", "setting": "L. monocytogenes [3]; 100 °C for 1 hr, L. monocytogenes", "value": "no activity"},
      {"measurement": "Activity after heat treatment", "setting": "L. monocytogenes [3]; wide range of temperatures, including 100 °C for 30 minutes", "value": "stable"},
      {"measurement": "Antimicrobial activity after proteolytic treatment", "setting": "proteinase K", "value": "None of the treatments resulted in a decrease of activity"},
      {"measurement": "Amount of peptide needed for detectable activity relative to that required to inhibit the Gram-positive indicators", "setting": "V. anguillarum; V. anguillarum", "value": "four to five fold more peptide"},
      {"measurement": "Antimicrobial activity, spot on lawn assay", "setting": "V. anguillarum; indicator V. anguillarum, *activity only detected with 4 to 5 times more peptide than that used for the other indicators", "value": "+*"},
      {"measurement": "Solubility in water", "setting": "[4]", "value": "fully soluble"},
      {"measurement": "Antimicrobial activity, spot on lawn assay", "setting": "C. difficile", "value": "-"},
      {"measurement": "Nature of the inhibitory activity (mode of action)", "setting": "L. monocytogenes [5]; L. monocytogenes", "value": "bacteriolytic action"},
      {"measurement": "Effect on growth of the indicator", "setting": "L. monocytogenes [5]; L. monocytogenes grown in presence of sample from the beginning of growth (T0), samples from 12 h MB cultures", "value": "completely abolish growth"},
      {"measurement": "Antimicrobial activity, spot on lawn assay", "setting": "VRE", "value": "-"},
      {"measurement": "Antimicrobial activity, spot on lawn assay", "setting": "L. monocytogenes [6]", "value": "++"}
    ]}
  ]
}
